Test results published in paper PMC4521866 (PLoS ONE, 2015).

Experiment: Solubility and structural stability of peptides
Format: physicochemical
Conditions: effect of adding HR2 hydrophilic residues to the LK21 N-terminus; qualitative

| Molecule | solubility and structural stability |
| --- | --- |
| CC[C@H](C)[C@H](NC(=O)[C@H](Cc1ccc(O)cc1)NC(=O)[C@H](Cc1c[nH]c2ccccc12)NC(=O)[C@H](CC(C)C)NC(=O)[C@H](Cc1c[nH]c2ccccc12)NC(=O)[C@H](CC(N)=O)NC(=O)[C@@H](NC(=O)[C@@H](NC(=O)[C@H](CC(N)=O)NC(=O)[C@H](Cc1ccccc1)NC(=O)[C@H](Cc1c[nH]c2ccccc12)NC(=O)[C@H](CC(N)=O)NC(=O)[C@H](Cc1c[nH]c2ccccc12)NC(=O)[C@H](CC(C)C)NC(=O)[C@H](CO)NC(=O)[C@H](C)NC(=O)[C@H](Cc1c[nH]c2ccccc12)NC(=O)[C@H](CCCCN)NC(=O)[C@H](CC(=O)O)NC(=O)[C@H](CC(C)C)NC(=O)[C@H](CCC(=O)O)NC(=O)[C@H](CC(C)C)NC(=O)[C@H](CC(C)C)NC(=O)[C@H](CCC(=O)O)NC(=O)[C@H](CCC(N)=O)NC(C)=O)[C@@H](C)CC)[C@@H](C)O)C(=O)N[C@@H](CCCCN)C(N)=O [QK26] | greatly enhanced |
| CC[C@H](C)[C@H](NC(=O)[C@H](Cc1ccc(O)cc1)NC(=O)[C@H](Cc1c[nH]c2ccccc12)NC(=O)[C@H](CC(C)C)NC(=O)[C@H](Cc1c[nH]c2ccccc12)NC(=O)[C@H](CC(N)=O)NC(=O)[C@@H](NC(=O)[C@@H](NC(=O)[C@H](CC(N)=O)NC(=O)[C@H](Cc1ccccc1)NC(=O)[C@H](Cc1c[nH]c2ccccc12)NC(=O)[C@H](CC(N)=O)NC(=O)[C@H](Cc1c[nH]c2ccccc12)NC(=O)[C@H](CC(C)C)NC(=O)[C@H](CO)NC(=O)[C@H](C)NC(=O)[C@H](Cc1c[nH]c2ccccc12)NC(=O)[C@H](CCCCN)NC(=O)[C@H](CC(=O)O)NC(=O)[C@H](CC(C)C)NC(=O)[C@H](CCC(=O)O)NC(=O)[C@H](CC(C)C)NC(=O)[C@H](CC(C)C)NC(=O)[C@H](CCC(=O)O)NC(=O)[C@H](CCC(N)=O)NC(=O)[C@H](CCC(=O)O)NC(=O)[C@H](CC(N)=O)NC(=O)[C@H](CCCCN)NC(=O)[C@H](CCC(=O)O)NC(C)=O)[C@@H](C)CC)[C@@H](C)O)C(=O)N[C@@H](CCCCN)C(N)=O [EK30] | greatly enhanced |
| Ac-EESQNQQEKNEQELLELDKWASLWNWFNITNWLWYIK-NH2 [EK37] | greatly enhanced |
